Results reported in PubChem BioAssay (NCI).
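Compound exposure: 48 hours, 5 concentrations, 96-well plates. Here, GI50 denotes the concentration required for 50% inhibition of growth. TGI is the concentration that stops growth completely.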

Columns and labels:
Test in all cases: growth of human tumour cells (NCI), 48 h
786-0 renal = tested on: 786-0 renal
CCRF-CEM leukemia = tested on: CCRF-CEM leukemia
EKVX NSCLC = tested on: EKVX NSCLC
LOX IMVI melanoma = tested on: LOX IMVI melanoma
NCI-H23 lung = tested on: NCI-H23 lung
SN12C renal = tested on: SN12C renal
SNB-19 CNS = tested on: SNB-19 CNS
HCT-15 colon = tested on: HCT-15 colon
SK-OV-3 ovarian = tested on: SK-OV-3 ovarian
MCF7 breast = tested on: MCF7 breast

Structure (SMILES)	TGI (786-0 renal) [µM]	TGI (CCRF-CEM leukemia) [µM]	TGI (EKVX NSCLC) [µM]	TGI (LOX IMVI melanoma) [µM]	TGI (NCI-H23 lung) [µM]	TGI (SN12C renal) [µM]	TGI (SNB-19 CNS) [µM]	TGI (HCT-15 colon) [µM]	TGI (SK-OV-3 ovarian) [µM]	GI50 (786-0 renal) [µM]	GI50 (CCRF-CEM leukemia) [µM]	GI50 (HCT-15 colon) [µM]	GI50 (LOX IMVI melanoma) [µM]	GI50 (MCF7 breast) [µM]	TGI (MCF7 breast) [µM]	GI50 (NCI-H23 lung) [µM]	GI50 (SK-OV-3 ovarian) [µM]	GI50 (SN12C renal) [µM]	GI50 (SNB-19 CNS) [µM]	GI50 (EKVX NSCLC) [µM]
Cc1[nH]c2cc([N+](=O)[O-])ccc2c1[N+](=O)[O-]	> 100	64.6	49.6	76.2	58.6	95	56.5	–	–	–	–	–	–	–	–	–	–	–	–	–
CN1CCN(c2nc(N)c(Br)c(Cl)n2)CC1	> 100	> 100	> 100	> 100	> 100	> 100	> 100	> 100	> 100	–	–	–	–	–	–	–	–	–	–	–
O=C(CCc1ccccc1)CC1OC(=O)C(Cl)=C1Cl (stereo not drawn)	37.5	> 100	66.1	40.2	53.4	38.3	38	30.3	> 100	–	–	–	–	–	–	–	–	–	–	–
Cc1c(C(N)=O)sc2nc(C)n(/N=c3\scc(-c4ccccc4)n3Cc3ccccc3)c(=O)c12	> 100	> 100	–	> 100	> 100	> 100	> 100	> 100	> 100	3.82	34.2	2.64	3.54	2.92	> 100	3.12	4.51	3.84	4.8	–
CC(=O)Nc1ccc(/C=c2\sc3nnc(-c4cccnc4)n3c2=O)cc1	31.4	53.9	55.2	30.7	31.4	31	77.2	35.9	66	–	–	–	–	–	–	–	–	–	–	–
Cc1ccc(S(=O)(=O)C2CC2(Cl)Cl)cc1 (stereo not drawn)	43.3	35	> 100	35.6	62.5	35.8	> 100	55.4	> 100	–	–	–	–	–	–	–	–	–	–	–
CCc1c(C)c2cc(-n3c(-c4ccc(OC)cc4)csc3=N)c(O)c(C)c2oc1=O	4.72	> 100	11.1	–	5.16	4.89	8.86	3.95	34.4	1.7	1.54	1.21	–	0.82	3.07	1.51	2.85	1.82	2.36	1.24
CC(=O)CC(=O)Nc1ccccc1C(F)(F)F	> 100	> 100	> 100	> 100	> 100	> 100	> 100	> 100	> 100	–	–	–	–	–	–	–	–	–	–	–
COc1ccc2c(c1)[n+]([O-])c(-c1ccccc1Cl)c(N)[n+]2[O-]	> 100	–	> 100	–	> 100	> 100	> 100	> 100	> 100	–	–	–	–	–	–	–	–	–	–	–
CSc1ccc(C(=O)/C=C/c2ccc(Cl)cc2Cl)cc1	36.2	–	78.8	37	57.4	> 100	–	97.7	–	16.9	–	29.8	20	3.68	19.8	21.9	–	42.9	–	20.2
O=C(N/C(=C\c1ccc(/C=C(\NC(=O)c2ccccc2)c2nc3c(O)nc(S)nc3[nH]2)cc1)c1nc2c(O)nc(S)nc2[nH]1)c1ccccc1	> 100	> 100	> 100	> 100	> 100	> 100	> 100	> 100	> 100	–	–	–	–	–	–	–	–	–	–	–
COc1ccc2nc3ccccc3c(NCCCCN(CCCl)CCCl)c2c1	1.64	–	–	–	2.09	3.13	7.9	> 43	–	–	–	–	–	–	5.23	–	–	–	–	–
COc1cc(C(=O)n2nc(N)c3c(C)cc(C)nc32)cc(OC)c1OC	> 100	> 100	–	> 100	> 100	> 100	> 100	> 100	> 100	> 100	> 89.2	1.38	> 100	10.2	> 100	> 100	> 82.4	> 100	> 100	–
CC(C)(C)[Si](C)(C)OC1[C@@H](COC(=O)NC(=O)CCl)O[C@@H](n2cnc3c(N)ncnc32)[C@H]1O[Si](C)(C)C(C)(C)C (stereo partly drawn)	2.33	0.931	–	1.13	2.32	3.23	14.7	2.21	5.95	1.05	0.232	1	0.41	2.26	9	1.02	2.92	1.17	7.61	–
NC(=O)c1ncn(C2OC(CO)C(O)C2O)c1O (stereo not drawn)	> 100	> 100	> 100	> 100	–	> 100	> 100	> 100	–	–	–	–	–	–	–	–	–	–	–	–
N#Cc1ccc(C2SCc3nc4ccccc4n32)cc1 (stereo not drawn)	> 100	> 100	> 100	–	> 100	> 100	> 100	> 100	> 100	–	–	–	–	–	–	–	–	–	–	–
CSc1nnc(C(C#N)C#N)nn1	> 100	> 100	> 100	> 100	> 100	> 100	> 100	> 100	> 100	–	–	–	–	–	–	–	–	–	–	–
CC1=C2C=CC(=O)C[C@@]2(C)CCC1	> 100	> 100	> 100	> 100	> 100	> 100	> 100	> 100	> 100	–	–	–	–	–	–	–	–	–	–	–
Cc1ccc(Nc2nc(-c3ccc(-c4ccc([N+](=O)[O-])cc4)o3)cs2)cc1	> 100	–	–	> 100	94.5	> 100	> 100	> 100	> 100	–	–	–	–	–	–	–	–	–	–	–

Structure (SMILES)	TGI (786-0 renal) [µM]	TGI (CCRF-CEM leukemia) [µM]	TGI (EKVX NSCLC) [µM]	TGI (LOX IMVI melanoma) [µM]	TGI (NCI-H23 lung) [µM]	TGI (SN12C renal) [µM]	TGI (SNB-19 CNS) [µM]	TGI (HCT-15 colon) [µM]	TGI (SK-OV-3 ovarian) [µM]	GI50 (786-0 renal) [µM]	GI50 (CCRF-CEM leukemia) [µM]	GI50 (HCT-15 colon) [µM]	GI50 (LOX IMVI melanoma) [µM]	GI50 (MCF7 breast) [µM]	TGI (MCF7 breast) [µM]	GI50 (NCI-H23 lung) [µM]	GI50 (SK-OV-3 ovarian) [µM]	GI50 (SN12C renal) [µM]	GI50 (SNB-19 CNS) [µM]	GI50 (EKVX NSCLC) [µM]
COC(=O)[C@@]12C3=NO[C@]1(C(=O)OC)C(O[Si](C)(C)C(C)(C)C)[C@@H](OC(C)=O)[C@@H](OC(C)=O)[C@@H]2[C@@H](OCc1ccccc1)CC3 (stereo partly drawn)	> 100	> 100	> 100	> 100	> 100	> 100	> 100	> 100	> 100	–	–	–	–	–	–	–	–	–	–	–
O=C1/C(=C/c2ccc(C(F)(F)F)cc2)COc2ccc(O)c(O)c21	2.85	2.25	2.99	1.48	3.21	2.5	2.87	1.93	10.8	1.32	0.335	0.444	0.377	–	–	1.61	2.89	1.15	1.48	1.61
Cc1ccc(S(=O)(=O)NNS(C)(=O)=O)cc1	> 100	> 100	> 100	> 100	> 100	> 100	> 100	> 100	–	–	–	–	–	–	–	–	–	–	–	–
CCC(c1ccccc1)c1cc(C(C)(C)C)cc(C(C)(C)C)c1O (stereo not drawn)	29	–	32.2	31.9	30.9	31.3	32.7	30.5	28.1	–	–	–	–	–	35.7	–	–	–	–	–
CCN(CC)C(=S)SS(C)(=O)=O	33.3	–	75.8	26.5	35.4	29.9	58.4	26.2	> 100	–	–	–	–	–	–	–	–	–	–	–
O=C1/C(=C/c2ccc([N+](=O)[O-])o2)Oc2ccc(Cl)cc21	7.06	2.24	–	3.19	5.07	5.67	16.7	2.05	47.2	2.72	0.429	0.537	1.59	1.42	3.92	2.11	13	2.2	3.94	–
CC(=O)[CH-]C(=O)c1ccccc1.CC(=O)[CH-]C(=O)c1ccccc1.CC(=O)[CH-]C(=O)c1ccccc1.[Ga+3]	37.1	35.7	57.6	31.7	48.3	33.2	> 100	> 100	38.2	18.2	4.39	18.2	16.3	–	–	20.2	20.1	15	39.1	22.7
CC(=O)C1C(=O)C(=O)N(CCN2C(=O)C(=O)C(C(C)=O)C2=O)C1=O (stereo not drawn)	> 100	–	> 100	> 100	> 100	> 100	> 100	> 100	> 100	–	–	–	–	–	–	–	–	–	–	–
CCOC(=O)C1C(=O)CC(=O)C2CCCCC21 (stereo not drawn)	> 100	> 100	> 100	> 100	> 100	> 100	> 100	> 100	> 100	–	–	–	–	–	–	–	–	–	–	–
O=C(C(=CN1CCN(C(=O)c2ccco2)C1=S)C(=O)c1ccccc1)c1ccccc1	19.2	–	21.4	4.1	14	14.4	> 50	20.7	> 50	8.23	–	2.63	1.22	–	–	6.95	41.8	6.07	29.2	8.06
CC1=C[C@@H]2c3c(c(O)c(O)c4oc5cc(O)cc(O)c5c(=O)c34)[C@@H](c3cc(O)c(O)c4oc5cc(O)cc(O)c5c(=O)c34)[C@@H]2C(C)(C)C1	11.5	–	15.6	4.26	14.5	23	13	12.8	14.6	2.69	–	3.16	1.53	1.89	11	3.33	3.77	3.91	2.76	5
CC1(C)C(=O)/C=C\C(=O)C(C)(C)C(=O)/C=C\C(=O)C(C)(C)C2=CC=C(O2)C(C)(C)C(=O)/C=C\C1=O	12.7	–	11.6	13	15.6	14.1	30.6	7.69	22.9	–	–	–	–	–	39.8	–	–	–	–	–
N#CC1=C(N)OC2=C(CCOc3c2ccc2ccccc32)C1c1ccc(Br)cc1 (stereo not drawn)	> 100	54.2	> 100	–	> 100	47	> 100	> 100	> 100	44.9	16.8	31	–	20.9	94.2	32.8	28.8	21.6	77.7	> 100
CN(C)N=Nc1ccc(S(N)(=O)=O)cc1	> 100	> 100	> 100	> 100	> 100	> 100	> 100	> 100	> 100	–	–	–	–	–	–	–	–	–	–	–
O=C1C(Cl)=C(NCCCN(CCCNC2=C(Cl)C(=O)c3ccccc3C2=O)C2=C(Cl)C(=O)c3ccccc3C2=O)C(=O)c2ccccc21	18.2	> 100	13.9	–	5.26	3.51	18.9	3.78	37.9	4.62	3.34	1.66	–	1.48	3.89	1.69	18.4	1.51	3.79	2.62
COc1ccc(C(=O)C(C(=O)C(=O)NCCCNC(=O)C(=O)C(C(=O)c2ccc(OC)cc2)c2ccc(OC)cc2)c2ccc(OC)cc2)cc1 (stereo not drawn)	> 100	> 100	> 100	> 100	> 100	–	> 100	> 100	> 100	–	–	–	–	–	–	–	–	–	–	–
COC1/C(=C\C(C)=O)c2ccccc2N1C(C)=O (stereo not drawn)	> 100	> 100	> 100	–	> 100	> 100	> 100	> 100	> 100	–	–	–	–	–	–	–	–	–	–	–
COc1ccc(C(O)c2ccccn2)cc1 (stereo not drawn)	> 100	–	> 100	> 100	> 100	> 100	> 100	> 100	> 100	–	–	–	–	–	> 100	–	–	–	–	–
